Where two headings read alike, the source gives them in different places. Marks after values point to notes of the source that are not given here.
Assays:
Vero cells = assay: Cytotoxic assay of tested drugs against Vero cells (CCK-8); type: cell-based, African green monkey; settings: for highest non-toxic concentration: Vero cells, CCK-8
Experimental: 3. Cytotoxic assay of tested drugs against Vero cells: Vero cells were seed in a 96 well plate at 3×10^4 cells/well. The next day, after growing into a monolayer, the test drug was diluted to obtain 8-9 concentrations and added to each well. Meanwhile, a normal control group was established, with 4 replicate wells for each group. After 72 hours, the toxicity of the test drug to Vero cells was measured using CCK-8 assay, and the highest non-toxic concentration and half toxic concentration (TC50) of the drug on the cells were calculated.

HSV-I = assay: Cytopathic effect (CPE) assay: inhibition of pathological changes of Vero cells induced by HSV-I (CCK-8); type: cell-based, Herpes simplex virus type I; settings: for inhibitory effect on HSV-I induced cytopathic changes (in words): CPE method; for Inhibition rate (%) / OD value: n = 5
Experimental: (1) Determination of the inhibitory activities of the test drugs on pathological changes of Vero cells induced by HSV-I using the cytopathic effect (CPE) assay: Vero cells were seeded in a 96-well plate and grew into a monolayer the next day. 100TCID50 HSV-I was added to infect cells, and then the cell maintenance solution containing different concentrations of the test drug was replaced, and a cell control group was included. The cells were cultured in an incubator for 72 hours. Then, the inhibitory effect of the drug on virus-induced cytopathic changes was measured using the CCK-8 assay, and thus the 50% inhibiting concentration (IC50) of the drug was calculated.

[1] = Solubility (highest solubility used as starting concentration; water solubility)
[2] = 1st (highest) concentration (971, 1600, 2620, 390 μg·ml^−1 for Compounds 1-4), 72 h
[3] = 2nd concentration, 50% serial dilution from column-head concentration, 72 h
[4] = 3rd concentration, 50% serial dilution from column-head concentration, 72 h
[5] = 4th concentration, 50% serial dilution from column-head concentration, 72 h
[6] = 5th concentration, 50% serial dilution from column-head concentration, 72 h
[7] = 6th concentration, 50% serial dilution from column-head concentration, 72 h
[8] = 7th concentration, 50% serial dilution from column-head concentration, 72 h
[9] = 8th concentration, 50% serial dilution from column-head concentration, 72 h
[10] = 9th concentration, 50% serial dilution from column-head concentration, 72 h
[11] = Concentration 1 (3 concentrations, 50% dilution based on highest non-toxic concentration)

Row | solubility [1] [mg/mL] | Compound | TC50 on Vero cells (Vero cells) [µg/mL] | growth inhibition rate (%) on Vero cells (Vero cells; [2]) | growth inhibition rate (%) on Vero cells (Vero cells; [3]) | growth inhibition rate (%) on Vero cells (Vero cells; [4]) | growth inhibition rate (%) on Vero cells (Vero cells; [5]) | growth inhibition rate (%) on Vero cells (Vero cells; [6]) | growth inhibition rate (%) on Vero cells (Vero cells; [7]) | growth inhibition rate (%) on Vero cells (Vero cells; [8]) | growth inhibition rate (%) on Vero cells (Vero cells; [9]) | growth inhibition rate (%) on Vero cells (Vero cells; [10]) [%] | inhibitory effect on HSV-I induced cytopathic changes (in words) (HSV-I) | Inhibition rate (%) (HSV-I; [11]) | OD value (HSV-I; [11]) | Inhibition rate (%) (HSV-I; Concentration 2) | OD value (HSV-I; Concentration 2) | Inhibition rate (%) (HSV-I; Concentration 3) | OD value (HSV-I; Concentration 3) | TC50 on Vero cells (Vero cells; 72 h, CCK-8, Probit regression) [µg/mL] | highest non-toxic concentration (Vero cells; 72 h) [µg/mL]
1 | – | COc1c(O)cc2occ(-c3ccc(O)c(S(=O)(=O)[O-])c3)c(=O)c2c1O.[Na+] [Compound 1, sodium tectorigenin-5′-sulphonate] | 390.312 | 57.86** % | 49.99** % | 42.06** % | 39.97** % | 34.95** % | 28.48** % | 27.14** % | 25.37** % | −1.57 | the effect was not significant | 4.41 | 0.37 ± 0.04 | 3.29 | 0.37 ± 0.02 | 2.26 | 0.36 ± 0.03 | – | –
2 | 2.62 | CCOc1ccc(-c2coc3cc(OCC)c(OC)c(O)c3c2=O)cc1S(=O)(=O)[O-].[Na+] [Compound 3, sodium 4,7′-diethyltectorigenin-5′-sulphonate] | – | 45.06** % | 40.80** % | 36.94** % | 34.23** % | 32.36** % | 27.12** % | 25.55** % | 22.06** % | −0.24 | no significant inhibitory effect | 6.20 | 0.38 ± 0.05 | 8.65 | 0.39 ± 0.10 | 4.09 | 0.37 ± 0.03 | 3020.44 | 3.496
3 | 0.39 | CCOc1ccc(-c2coc3c(Cc4c(OCC)c(OC)c(O)c5c(=O)c(-c6ccc(OCC)c(S(=O)(=O)[O-])c6)coc45)c(OCC)c(OC)c(O)c3c2=O)cc1S(=O)(=O)[O-].[Na+].[Na+] [Compound 4, sodium 8,8″-methylene-di-(4,7′-diethyltectorigenin-5′-sulphonate)] | – | 28.40** % | 27.54** % | 26.53** % | 23.48** % | 22.02** % | 18.43** % | 14.94** % | 9.42% | −23.23 | no significant inhibitory effect | 5.96 | 0.32 ± 0.02 | 6.09 | 0.32 ± 0.01 | 5.99 | 0.32 ± 0.01 | 11308.7 | 0.864
